From patent publication US4906467A, “Novel, long-duration treatment for glaucoma” (priority 1988, dated 1990)
Entries after “also recorded” stand apart in the source; their conditions may differ.

What was measured:
[1] = rabbit, in vivo
aqueous humor formation = conditions: in vivo; cited from earlier work
intraocular pressure [2] = conditions: cited from earlier work; for effect on intraocular pressure: in vivo
[3] = test system: ciliary body Na^+ -K^+ -ATPase; conditions: cited from earlier work
[4] = test system: corneal epithelial Na^+ -K^+ -ATPase; conditions: corneal epithelium, in vitro; cited from earlier work
Na^+ -K^+ -ATPases = conditions: cited from earlier work
intraocular pressure [5] = experiment: Intraocular pressure after topical 12(R)-HETE (general statement); format: in vivo; conditions: effective dose
[6] = test system: RABBIT INTRAOCULAR PRESSURE; experiment: Effect of topical 12(R)-HETE on rabbit intraocular pressure (pneumotometer); format: in vivo; conditions: for intraocular pressure, difference from baseline (mean ± SEM): n = 6
Method: A solution of 12(R)-HETE was prepared by dissolving 50 μg 12(R)-HETE in 1 ml ethanol and diluting to give aliquots containing 0.5 or 1.0 μg 12(R)-HETE in each of several containers. These could be frozen at -78° C. with or without ethanol. Before use, aliquots were warmed, ethanol was removed (if necessary) and sterile phosphate buffered saline (PBS) was added to give a concentration of 0.01 mg 12(R)-HETE/ml PBS. Rabbits were treated by administering 10 to 50 μl of 12(R)-HETE in PBS topically to the each eye of a 1.5 kg rabbit. Control rabbits were treated with PBS alone. Intraocular pressure was measured on a conventional pneumotometer, using a sensor size appropriate for the eye to be measured.
The pressure in each eye of the rabbits was measured several times before beginning the experiment to establish a baseline. Pressure was measured again just after administration of the test compound, then every 30 minutes for 180 minutes, daily for six days, and again on days 9 and 11. […] Table 1 illustrates the mean and standard error of the pressure difference from baseline in six animals treated with 0.5 μg 12(R)-HETE (per eye) compared with three controls, only one of which was tested after the first day.

[7] = Ocular side effects after topical administration in vivo (corneal thickness, clarity, side effects)
[8] = in vivo; cited from earlier work

CCCCC/C=C\C[C@@H](O)/C=C/C=C\C/C=C\CCC[14C](=O)O [1-(^14 C)-12(R)-HETE]
eye tissues with highest levels of 12(R)-HETE and its metabolites [1]: The highest levels were found in the cornea, ciliary bodies and trabecular meshwork

CNC[C@H](O)c1ccc(O)c(O)c1 [Epinephrine]
effect on production of aqueous humor (aqueous humor formation): decreases production of aqueous humor
effect on intraocular pressure (intraocular pressure [2]): reducing the intraocular pressure

CCCCCC=CC[C@H](O)C=CC=CCC=CCCCC(=O)O [12(S)-HETE, reference compound]
inhibition of Na+-K+-ATPase [3]: only the R isomer exhibits a significant inhibition of enzyme activity
inhibition of Na+-K+-ATPase [4]: only the R isomer exhibits a significant inhibition of enzyme activity

CNCC(O)c1ccc(OC(=O)C(C)(C)C)c(OC(=O)C(C)(C)C)c1 (stereo not drawn) [dipivalyl epinephrine]
effect on production of aqueous humor (aqueous humor formation): decreases production of aqueous humor
effect on intraocular pressure (intraocular pressure [2]): reducing the intraocular pressure

CCCCCC=CC[C@@H](O)C=CC=CCC=CCCCC(=O)O [12(R)-HETE, 12(R)-hydroxy-eicosa-5,8,10,14-tetraenoic acid]
inhibition of Na+-K+-ATPases (Na^+ -K^+ -ATPases): inhibitor of Na^+ -K^+ -ATPases
duration of intraocular pressure decrease (intraocular pressure [5]): a decrease in intraocular pressure for a period of several days; also recorded: remains depressed for several days
onset of intraocular pressure drop (intraocular pressure [5]): drops within a few minutes
inhibition of Na+-K+-ATPase [3]: only the R isomer exhibits a significant inhibition of enzyme activity; also recorded: inhibit Na^+ -K^+ -ATPase isolated from the ciliary body
inhibition of Na+-K+-ATPase [4]: only the R isomer exhibits a significant inhibition of enzyme activity; also recorded: inhibit Na^+ -K^+ -ATPase isolated from the ciliary body and the corneal epithelium; also recorded: inhibit Na^+ -K^+ -ATPase in the corneal epithelium in vitro
intraocular pressure, difference from baseline (mean ± SEM) ([6]; 0 min., 0.5 μg per eye topical): -0.6 ± 0.9 mm Hg
onset and duration of intraocular pressure drop ([6]; 0.5 μg per eye, rabbits, Table 1): short onset, sustained pressure drop
intraocular pressure in test animals compared with control animals ([6]; 0.5 μg per eye, vs PBS controls): significantly below the pressure in control animals at all times after administration of the test drug
intraocular pressure, difference from baseline (mean ± SEM) ([6]; 30 min, 0.5 μg per eye topical): -3.5 ± 1.9 mm Hg
intraocular pressure, difference from baseline (mean ± SEM) ([6]; 60 min, 0.5 μg per eye topical): -5.6 ± 1.4 mm Hg
intraocular pressure, difference from baseline (mean ± SEM) ([6]; 90 min, 0.5 μg per eye topical): -5.6 ± 1.3 mm Hg
intraocular pressure, difference from baseline (mean ± SEM) ([6]; 120 min, 0.5 μg per eye topical): -7.2 ± 1.6 mm Hg
intraocular pressure, difference from baseline (mean ± SEM) ([6]; 150 min, 0.5 μg per eye topical): -4.7 ± 2.8 mm Hg
intraocular pressure, difference from baseline (mean ± SEM) ([6]; 180 min, 0.5 μg per eye topical): -4.1 ± 2.2 mm Hg
intraocular pressure, difference from baseline (mean ± SEM) ([6]; 2 days, 0.5 μg per eye topical): -3.2 ± 2.1 mm Hg
intraocular pressure, difference from baseline (mean ± SEM) ([6]; 3 days, 0.5 μg per eye topical): -4.2 ± 1.2 mm Hg
intraocular pressure, difference from baseline (mean ± SEM) ([6]; 4 days, 0.5 μg per eye topical): -4.2 ± 1.0 mm Hg
intraocular pressure, difference from baseline (mean ± SEM) ([6]; 5 days, 0.5 μg per eye topical): -5.2 ± 2.1 mm Hg
intraocular pressure, difference from baseline (mean ± SEM) ([6]; 6 days, 0.5 μg per eye topical): -6.0 + 1.2 mm Hg
intraocular pressure, difference from baseline (mean ± SEM) ([6]; 9 days, 0.5 μg per eye topical): -7.4 ± 1.7 mm Hg
intraocular pressure, difference from baseline (mean ± SEM) ([6]; 11 days, 0.5 μg per eye topical): -2.9 ± 1.5 mm Hg
intraocular pressure, difference from baseline (mean ± SEM) ([6]; Base (before dosing), 0.5 μg per eye, baseline 25.6 mm): 0.0 ± 1.4 mm Hg
untoward side effects ([7]; doses up to 1 μg per eye): no untoward side effects have been observed
corneal clarity ([7]; topical, in vivo): no loss of clarity
corneal thickness ([7]; topical, in vivo): no increase in corneal thickness
other observable side effects ([7]; topical, in vivo): no other observable side effects

C[C@@H]1O[C@@H](O[C@H]2C[C@@H](O)[C@]3(CO)[C@H]4[C@H](O)C[C@]5(C)[C@@H](C6=CC(=O)OC6)CC[C@]5(O)[C@@H]4CC[C@]3(O)C2)[C@H](O)[C@H](O)[C@H]1O [ouabain]
inhibition of Na+-K+-ATPases (Na^+ -K^+ -ATPases): inhibit Na^+ -K^+ -ATPases
side effects [8]: severe side effects including keratitis and inflammation of the cornea
effect on intraocular pressure (intraocular pressure [2]): decrease intraocular pressure

CC[C@@H]1C(=O)OC[C@@H]1Cc1cncn1C [Pilocarpine]
effect on pupil size / ciliary body tone / vision [8]: pupillary constriction, spasm of accomodation
effect on intraocular pressure (intraocular pressure [2]): a transitory rise in intraocular pressure, followed by a more persistent fall

CC(=O)Nc1nnc(S(N)(=O)=O)s1 [acetazolamide]
effect on production of aqueous humor (aqueous humor formation): reduces the rate of aqueous humor formation
effect on intraocular pressure (intraocular pressure [2]): lowering intraocular pressure in patients with glaucoma

CC(=O)OC1CN2CCC1CC2 (stereo not drawn) [Aceclidine]
effectiveness in reducing intraocular pressure compared with pilocarpine (intraocular pressure [2]; glaucoma): approximately as effective as pilocarpine in reducing intraocular pressure

CC(C)(C)NC[C@H](O)COc1nsnc1N1CCOCC1 [Timolol]
side effects [8]: The side effects are minimal, although systemic absorption of the drug can occur, leading to slowing of the heart
effect on production of aqueous humor (aqueous humor formation): appears to act by reducing the production of aqueous humor
duration of beneficial effect (intraocular pressure [2]; glaucoma): about 7 hours
effect on intraocular pressure (intraocular pressure [2]): effective in reducing intraocular pressure
